{
  "source": "patent US12186304B2",
  "about": "“Method for treating cancer by combination of IAP inhibitor and modulator of immune checkpoint molecule” (ASCENTAGE PHARMA (SUZHOU) CO., LTD., priority 2018, dated 2025)",
  "key": {"[1]": {"system": "metastatic pancreatic cancer", "test": "Phase I study: anti-tumor activity in pancreatic cancer", "type": "in vivo, human"}, "[2]": {"test": "Phase I study (NCT03386526): safety and tolerability", "protocol": "The Phase I dose escalation study included two parts.\nPembrolizumab was administered 200 mg IV on day 1 of a 21-day-cycle, until disease progression or untolerated toxicity.\nThe inclusion criteria for the Phase I study are: Age≥18 years; ECOG PS: 0-1;\nAdequate hematologic, renal and liver functions; Advanced or metastatic solid tumor patients must be refractory to or intolerant of existing therapy(ies) known to provide clinical benefit for their condition."}},
  "data": [
    {"smiles": "CN[C@@H](C)C(=O)N[C@H]1CN(S(=O)(=O)c2cccc(S(=O)(=O)N3CC[C@H]4CC[C@@H](C(=O)NC(c5ccccc5)c5ccccc5)N4C(=O)[C@@H](NC(=O)[C@H](C)NC)C3)c2)CC[C@H]2CC[C@@H](C(=O)NC(c3ccccc3)c3ccccc3)N2C1=O", "note": "[APG-1387]", "values": [
      {"measurement": "change of one mPC patient with confirmed SD", "setting": "[1]; 45 mg", "value": "+6%"},
      {"measurement": "treatment duration of one mPC patient with confirmed SD", "setting": "[1]; 45 mg", "value": "> 9", "unit": "cycles"},
      {"measurement": "DCR (disease control rate, SD above)", "setting": "[1]; pancreatic cancer", "value": "4/10"},
      {"measurement": "ORR (objective response rate, CR + PR)", "setting": "[1]; pancreatic cancer", "value": 0},
      {"measurement": "Best response: CR", "setting": "[1]; pancreatic cancer, patients", "value": 0},
      {"measurement": "Best response: PD", "setting": "[1]; pancreatic cancer, patients", "value": 4},
      {"measurement": "Best response: PR", "setting": "[1]; pancreatic cancer, patients", "value": 0},
      {"measurement": "Best response: SD", "setting": "[1]; pancreatic cancer, patients", "value": 4},
      {"measurement": "G3 above TRAEs: G3 blood bilirubin increased", "setting": "[2]; 60 mg monotherapy", "value": "one"},
      {"measurement": "G3 above TRAEs: lipase increased", "setting": "[2]; 60 mg monotherapy", "value": "one"},
      {"measurement": "# of pts discontinued treatment: Adverse Event", "setting": "[2]; APG-1387 20 mg", "value": 0},
      {"measurement": "# of pts discontinued treatment: Clinical progression", "setting": "[2]; APG-1387 20 mg", "value": 0},
      {"measurement": "# of pts discontinued treatment: Disease progression", "setting": "[2]; APG-1387 20 mg", "value": 2},
      {"measurement": "# of pts discontinued treatment: Lack of efficacy", "setting": "[2]; APG-1387 20 mg", "value": 1},
      {"measurement": "TRAEs (all Grades): Aspartate aminotransferase increased, patients", "setting": "[2]; APG-1387 20 mg", "value": 0},
      {"measurement": "TRAEs (all Grades): Bell's palsy, patients", "setting": "[2]; APG-1387 20 mg", "value": 0},
      {"measurement": "TRAEs (all Grades): Blood bilirubin increased, patients", "setting": "[2]; APG-1387 20 mg", "value": 0},
      {"measurement": "TRAEs (all Grades): Decreased appetite, patients", "setting": "[2]; APG-1387 20 mg", "value": 0},
      {"measurement": "TRAEs (all Grades): Dehydration, patients", "setting": "[2]; APG-1387 20 mg", "value": 0},
      {"measurement": "TRAEs (all Grades): Diarrhoea, patients", "setting": "[2]; APG-1387 20 mg", "value": 0},
      {"measurement": "TRAEs (all Grades): Dyspepsia, patients", "setting": "[2]; APG-1387 20 mg", "value": 0},
      {"measurement": "TRAEs (all Grades): Eructation, patients", "setting": "[2]; APG-1387 20 mg", "value": 0},
      {"measurement": "TRAEs (all Grades): Fatigue, patients", "setting": "[2]; APG-1387 20 mg", "value": 0},
      {"measurement": "TRAEs (all Grades): Headache, patients", "setting": "[2]; APG-1387 20 mg", "value": 0},
      {"measurement": "TRAEs (all Grades): Lipase increased, patients", "setting": "[2]; APG-1387 20 mg", "value": 0},
      {"measurement": "TRAEs (all Grades): Myalgia, patients", "setting": "[2]; APG-1387 20 mg", "value": 0},
      {"measurement": "TRAEs (all Grades): Nausea, patients", "setting": "[2]; APG-1387 20 mg", "value": 0},
      {"measurement": "TRAEs (all Grades): Peripheral sensory neuropathy, patients", "setting": "[2]; APG-1387 20 mg", "value": 0},
      {"measurement": "TRAEs (all Grades): Phlebitis, % of patients", "setting": "[2]; APG-1387 20 mg", "value": "(33.3%)"},
      {"measurement": "TRAEs (all Grades): Phlebitis, patients", "setting": "[2]; APG-1387 20 mg", "value": 1},
      {"measurement": "TRAEs (all Grades): Pneumonitis, patients", "setting": "[2]; APG-1387 20 mg", "value": 0},
      {"measurement": "TRAEs (all Grades): Pruritus, % of patients", "setting": "[2]; APG-1387 20 mg", "value": "(33.3%)"},
      {"measurement": "TRAEs (all Grades): Pruritus, patients", "setting": "[2]; APG-1387 20 mg", "value": 1},
      {"measurement": "TRAEs (all Grades): Rash maculo-papular, % of patients", "setting": "[2]; APG-1387 20 mg", "value": "(33.3%)"},
      {"measurement": "TRAEs (all Grades): Rash maculo-papular, patients", "setting": "[2]; APG-1387 20 mg", "value": 1},
      {"measurement": "TRAEs (all Grades): Tumor pain, patients", "setting": "[2]; APG-1387 20 mg", "value": 0},
      {"measurement": "# of pts discontinued treatment: Adverse Event", "setting": "[2]; APG-1387 30 mg", "value": 0},
      {"measurement": "# of pts discontinued treatment: Clinical progression", "setting": "[2]; APG-1387 30 mg", "value": 0},
      {"measurement": "# of pts discontinued treatment: Disease progression", "setting": "[2]; APG-1387 30 mg", "value": 3},
      {"measurement": "# of pts discontinued treatment: Lack of efficacy", "setting": "[2]; APG-1387 30 mg", "value": 0},
      {"measurement": "TRAEs (all Grades): Aspartate aminotransferase increased, patients", "setting": "[2]; APG-1387 30 mg", "value": 0},
      {"measurement": "TRAEs (all Grades): Bell's palsy, patients", "setting": "[2]; APG-1387 30 mg", "value": 0},
      {"measurement": "TRAEs (all Grades): Blood bilirubin increased, patients", "setting": "[2]; APG-1387 30 mg", "value": 0},
      {"measurement": "TRAEs (all Grades): Decreased appetite, patients", "setting": "[2]; APG-1387 30 mg", "value": 0},
      {"measurement": "TRAEs (all Grades): Dehydration, patients", "setting": "[2]; APG-1387 30 mg", "value": 0},
      {"measurement": "TRAEs (all Grades): Diarrhoea, % of patients", "setting": "[2]; APG-1387 30 mg", "value": "(33.3%)"},
      {"measurement": "TRAEs (all Grades): Diarrhoea, patients", "setting": "[2]; APG-1387 30 mg", "value": 1},
      {"measurement": "TRAEs (all Grades): Dyspepsia, patients", "setting": "[2]; APG-1387 30 mg", "value": 0},
      {"measurement": "TRAEs (all Grades): Eructation, patients", "setting": "[2]; APG-1387 30 mg", "value": 0},
      {"measurement": "TRAEs (all Grades): Fatigue, patients", "setting": "[2]; APG-1387 30 mg", "value": 0},
      {"measurement": "TRAEs (all Grades): Headache, % of patients", "setting": "[2]; APG-1387 30 mg", "value": "(33.3%)"},
      {"measurement": "TRAEs (all Grades): Headache, patients", "setting": "[2]; APG-1387 30 mg", "value": 1},
      {"measurement": "TRAEs (all Grades): Lipase increased, patients", "setting": "[2]; APG-1387 30 mg", "value": 0},
      {"measurement": "TRAEs (all Grades): Myalgia, patients", "setting": "[2]; APG-1387 30 mg", "value": 0},
      {"measurement": "TRAEs (all Grades): Nausea, % of patients", "setting": "[2]; APG-1387 30 mg", "value": "(33.3%)"},
      {"measurement": "TRAEs (all Grades): Nausea, patients", "setting": "[2]; APG-1387 30 mg", "value": 1},
      {"measurement": "TRAEs (all Grades): Peripheral sensory neuropathy, patients", "setting": "[2]; APG-1387 30 mg", "value": 0},
      {"measurement": "TRAEs (all Grades): Phlebitis, patients", "setting": "[2]; APG-1387 30 mg", "value": 0},
      {"measurement": "TRAEs (all Grades): Pneumonitis, patients", "setting": "[2]; APG-1387 30 mg", "value": 0},
      {"measurement": "TRAEs (all Grades): Pruritus, patients", "setting": "[2]; APG-1387 30 mg", "value": 0},
      {"measurement": "TRAEs (all Grades): Rash maculo-papular, patients", "setting": "[2]; APG-1387 30 mg", "value": 0},
      {"measurement": "TRAEs (all Grades): Tumor pain, patients", "setting": "[2]; APG-1387 30 mg", "value": 0},
      {"measurement": "# of pts discontinued treatment: Adverse Event", "setting": "[2]; APG-1387 45 mg", "value": 1},
      {"measurement": "# of pts discontinued treatment: Clinical progression", "setting": "[2]; APG-1387 45 mg", "value": 1},
      {"measurement": "# of pts discontinued treatment: Disease progression", "setting": "[2]; APG-1387 45 mg", "value": 8},
      {"measurement": "# of pts discontinued treatment: Lack of efficacy", "setting": "[2]; APG-1387 45 mg", "value": 1},
      {"measurement": "TRAEs (all Grades): Aspartate aminotransferase increased, % of patients", "setting": "[2]; APG-1387 45 mg", "value": "(7.7%)"},
      {"measurement": "TRAEs (all Grades): Aspartate aminotransferase increased, patients", "setting": "[2]; APG-1387 45 mg", "value": 1},
      {"measurement": "TRAEs (all Grades): Bell's palsy, % of patients", "setting": "[2]; APG-1387 45 mg", "value": "(7.7%)"},
      {"measurement": "TRAEs (all Grades): Bell's palsy, patients", "setting": "[2]; APG-1387 45 mg", "value": 1},
      {"measurement": "TRAEs (all Grades): Blood bilirubin increased, patients", "setting": "[2]; APG-1387 45 mg", "value": 0},
      {"measurement": "TRAEs (all Grades): Decreased appetite, % of patients", "setting": "[2]; APG-1387 45 mg", "value": "(15.4%)"},
      {"measurement": "TRAEs (all Grades): Decreased appetite, patients", "setting": "[2]; APG-1387 45 mg", "value": 2},
      {"measurement": "TRAEs (all Grades): Dehydration, % of patients", "setting": "[2]; APG-1387 45 mg", "value": "(7.7%)"},
      {"measurement": "TRAEs (all Grades): Dehydration, patients", "setting": "[2]; APG-1387 45 mg", "value": 1},
      {"measurement": "TRAEs (all Grades): Diarrhoea, patients", "setting": "[2]; APG-1387 45 mg", "value": 0},
      {"measurement": "TRAEs (all Grades): Dyspepsia, % of patients", "setting": "[2]; APG-1387 45 mg", "value": "(7.7%)"},
      {"measurement": "TRAEs (all Grades): Dyspepsia, patients", "setting": "[2]; APG-1387 45 mg", "value": 1},
      {"measurement": "TRAEs (all Grades): Eructation, patients", "setting": "[2]; APG-1387 45 mg", "value": 0},
      {"measurement": "TRAEs (all Grades): Fatigue, % of patients", "setting": "[2]; APG-1387 45 mg", "value": "(23.1%)"},
      {"measurement": "TRAEs (all Grades): Fatigue, patients", "setting": "[2]; APG-1387 45 mg", "value": 3},
      {"measurement": "TRAEs (all Grades): Headache, patients", "setting": "[2]; APG-1387 45 mg", "value": 0},
      {"measurement": "TRAEs (all Grades): Lipase increased, patients", "setting": "[2]; APG-1387 45 mg", "value": 0},
      {"measurement": "TRAEs (all Grades): Myalgia, % of patients", "setting": "[2]; APG-1387 45 mg", "value": "(7.7%)"},
      {"measurement": "TRAEs (all Grades): Myalgia, patients", "setting": "[2]; APG-1387 45 mg", "value": 1},
      {"measurement": "TRAEs (all Grades): Nausea, % of patients", "setting": "[2]; APG-1387 45 mg", "value": "(7.7%)"},
      {"measurement": "TRAEs (all Grades): Nausea, patients", "setting": "[2]; APG-1387 45 mg", "value": 1},
      {"measurement": "TRAEs (all Grades): Peripheral sensory neuropathy, % of patients", "setting": "[2]; APG-1387 45 mg", "value": "(7.7%)"}
    ]}
  ]
}
